Counter-ions that a name gives are not always drawn.

In one assay the test system is HCT-116 cell line. Description: Inhibition of cell growth, tetrazolium salt (MTT) assay. In kind it is cell-based. The conditions noted are these: HCT116 cells; compound at 250 nM. As to the method: Inhibition of Cell Growth: Assessment of Cytotoxicity:
Inhibition of cell growth was measured using the tetrazolium salt assay, which is based on the ability of viable cells to reduce 3-(4,5-dimethylthiazol-2-yl)-2,5-[2H]-diphenyltetrazolium bromide (MTT) to formazan (Mossman, Journal of Immunological Methods, vol. 65 (1983), pp. 55-58). The water-insoluble purple formazan product was then detected spectrophotometrically. The HCT-116 cell line was used as a representative cancer cell line and grown in 96-well plates. Cells were plated in McCoy's 5A Medium at a volume of 135 μl/well. Plates were incubated for four hours before addition of inhibitor compounds. Different concentrations of inhibitor compounds were added in 0.5% (v/v) dimethylsulfoxide (15 μLuwell), and cells were incubated at 37° C. (5% CO2) for three to five days. At the end of the incubation, MTT was added to a final concentration of 0.2 mg/mL, and cells were incubated for 4 hours more at 37° C. After centrifugation of the plates and removal of medium, the absorbance of the formazan (solubilized in dimethylsulfoxide) was measured at 540 nm. […] All results were compared to control cells treated only with 0.5% (v/v) dimethylsulfoxide.
Take `CC1CCCC(NCCS(=O)(=O)N2CCC(Nc3nc(N)c(C(=O)c4c(F)cccc4F)s3)CC2)C1` (mixture of isomers) [Example S57]: the “% Inhibition HCT116 @ 250 nM” value is given as 73%.

The same assay, now with this note: HCT116 cells; compound at 250 nM; 0.25 µM.
As to `CC(=O)NCCNCCS(=O)(=O)N1CCC(Nc2nc(N)c(C(=O)c3c(F)cccc3F)s2)CC1` [Example S113], the “% Inhibition HCT116 @ 250 nM” value worked out at 51%.
Take `CC(=O)NCCNCCS(=O)(=O)N1CCC(Nc2nc(N)c(C(=O)c3c(F)cccc3F)s2)CC1` [Example S165]: the “% Inhibition HCT116 @ 250 nM” value was 25%.
Regarding `Nc1nc(NC2CCN(S(=O)(=O)CCNCc3cccnc3)CC2)sc1C(=O)c1c(F)cccc1F` [Example S56], the “% Inhibition HCT116 @ 250 nM” value stood at 73%.

The assay is the same for the next values; noted with them: Homo sapiens, HCT-116, 120 h, first HCT-116 column (c4); MTT, three to five days; read-out: HCT-116 IC50.
By IC50 is commonly meant the concentration at which inhibition is half-maximal. `Nc1nc(NC2CCN(S(=O)(=O)CCNCc3ccccc3)CC2)sc1C(=O)c1c(F)cccc1F` [Example K48]: the IC50 worked out at 170 nM.
As for `CC(C)(C)CNCCS(=O)(=O)N1CCC(Nc2nc(N)c(C(=O)c3c(F)cccc3F)s2)CC1` [Example K51, (4-Amino-2-{1-[2-(2,2-dimethyl-propylamino)-ethanesulfonyl]-piperidin-4-ylamino}-thiazol-5-yl)-(2,6-difluoro-phenyl)-methanone], the IC50 worked out at 170 nM.
Still for that read-out and setting: with `CN(C)CC#Cc1ccc(S(=O)(=O)N2CCC(Nc3nc(N)c(C(=O)c4c(F)cccc4F)s3)CC2)cc1` [Example I9, 1-(4-Amino-2-{1-[4-(3-dimethylamino-prop-1-ynyl)-benzenesulfonyl]-piperidin-4-ylamino}-thiazol-5-yl)-1-(2,6-difluoro-phenyl)-methanone D-Glucuronic Acid Salt] the figure was 100 nM.

The same assay, now with this note: Homo sapiens, HCT-116, 120 h, second HCT-116 column (c5); MTT, three to five days; read-out: HCT-116 IC50.
For the compound `Nc1nc(NC2CCN(S(=O)(=O)CCNCc3ccccc3)CC2)sc1C(=O)c1c(F)cccc1F` [Example K48], the IC50 amounted to 500 nM.
`CC(C)(C)CNCCS(=O)(=O)N1CCC(Nc2nc(N)c(C(=O)c3c(F)cccc3F)s2)CC1` [Example K51, (4-Amino-2-{1-[2-(2,2-dimethyl-propylamino)-ethanesulfonyl]-piperidin-4-ylamino}-thiazol-5-yl)-(2,6-difluoro-phenyl)-methanone]: the 50% inhibitory concentration (IC50) turned out to be 500 nM.
Still for that read-out and setting: the same measure for `CN(C)CC#Cc1ccc(S(=O)(=O)N2CCC(Nc3nc(N)c(C(=O)c4c(F)cccc4F)s3)CC2)cc1` [Example I9, 1-(4-Amino-2-{1-[4-(3-dimethylamino-prop-1-ynyl)-benzenesulfonyl]-piperidin-4-ylamino}-thiazol-5-yl)-1-(2,6-difluoro-phenyl)-methanone D-Glucuronic Acid Salt]: 500 nM.

Staying with this assay, now noted: Homo sapiens, HCT-116, HCT116 cells; compound at 250 nM; read-out: % Inhibition HCT116 @ 250 nM.
For orientation: inhibition means the relative decrease from the control value, in per cent. As to `CN(CCc1ccccn1)CCS(=O)(=O)N1CCC(Nc2nc(N)c(C(=O)c3c(F)cccc3F)s2)CC1` [Example S26], the inhibition at 0.25 µM was 17%.
The same measure, in the same setting: with `CCN(CCS(=O)(=O)N1CCC(Nc2nc(N)c(C(=O)c3c(F)cccc3F)s2)CC1)CC(C)(C)O` [Example S35] the figure was 58%; with `Nc1nc(NC2CCN(S(=O)(=O)CCNC3CCCCC3)CC2)sc1C(=O)c1c(F)cccc1F` [Example S58], 50%.
Still for that read-out and setting: with `Nc1nc(NC2CCN(S(=O)(=O)CCNCc3ccco3)CC2)sc1C(=O)c1c(F)cccc1F` [Example S72] the figure was 19%.
Consider `CC(C)N(CCS(=O)(=O)N1CCC(Nc2nc(N)c(C(=O)c3c(F)cccc3F)s2)CC1)C1CCCCC1` [Example S8], for which the inhibition at 0.25 µM was found to be 91%.
As to `CC(C)N(CCS(=O)(=O)N1CCC(Nc2nc(N)c(C(=O)c3c(F)cccc3F)s2)CC1)C(C)C` [Example S33], the inhibition at 0.25 µM was 79%.
As to `CC1CC(NCCS(=O)(=O)N2CCC(Nc3nc(N)c(C(=O)c4c(F)cccc4F)s3)CC2)CC(C)(C)C1` (centres unmarked) [Example S136], the inhibition at 0.25 µM is 81%.
On the same count and under the same terms, the same measure for `CC(C)(C)NCCS(=O)(=O)N1CCC(Nc2nc(N)c(C(=O)c3c(F)cccc3F)s2)CC1` [Example S81]: 82%; for `Nc1nc(NC2CCN(S(=O)(=O)CCNCc3ccc(Cl)cc3)CC2)sc1C(=O)c1c(F)cccc1F` [Example S103]: 25%; for `Nc1nc(NC2CCN(S(=O)(=O)CCN3CCCC(O)C3)CC2)sc1C(=O)c1c(F)cccc1F` (centres unmarked) [Example S39]: 14%.
Consider `Nc1nc(NC2CCN(S(=O)(=O)CCNCc3cc(F)ccc3F)CC2)sc1C(=O)c1c(F)cccc1F` [Example S125], for which the inhibition at 0.25 µM is 49%.
`COC(CNCCS(=O)(=O)N1CCC(Nc2nc(N)c(C(=O)c3c(F)cccc3F)s2)CC1)OC` [Example S108]: the inhibition at 0.25 µM was determined as 16%.
Turning to `CN(CCS(=O)(=O)N1CCC(Nc2nc(N)c(C(=O)c3c(F)cccc3F)s2)CC1)Cc1ccccc1` [Example S28], the inhibition at 0.25 µM is 80%.
As for `Nc1nc(NC2CCN(S(=O)(=O)CCN3CCCC3)CC2)sc1C(=O)c1c(F)cccc1F` [Example S21], the inhibition at 0.25 µM came to 35%.
With `CN(C)CCNCCS(=O)(=O)N1CCC(Nc2nc(N)c(C(=O)c3c(F)cccc3F)s2)CC1` [Example S114], the inhibition at 0.25 µM stood at 49%.
For the compound `Nc1nc(NC2CCN(S(=O)(=O)CCNCc3ccccc3Cl)CC2)sc1C(=O)c1c(F)cccc1F` [Example S96], the inhibition at 0.25 µM is 48%.
Turning to `Nc1nc(NC2CCN(S(=O)(=O)CCNCCc3cnc[nH]3)CC2)sc1C(=O)c1c(F)cccc1F` [Example S75], the inhibition at 0.25 µM is 12%.
The same measure, in the same setting: the same measure for `CCOC(=O)CC(C)NCCS(=O)(=O)N1CCC(Nc2nc(N)c(C(=O)c3c(F)cccc3F)s2)CC1` (centres unmarked) [Example S91]: 10%.
Consider `Nc1nc(NC2CCN(S(=O)(=O)CCNC3c4ccccc4CC3O)CC2)sc1C(=O)c1c(F)cccc1F` (centres unmarked) [Example S150], for which the inhibition at 0.25 µM came to 33%.
On the same count and under the same terms, with `CN(CC#N)CCS(=O)(=O)N1CCC(Nc2nc(N)c(C(=O)c3c(F)cccc3F)s2)CC1` [Example S53] the figure was 17%; with `Nc1nc(NC2CCN(S(=O)(=O)CCN[C@@H]3C=CCCC3)CC2)sc1C(=O)c1c(F)cccc1F` [Example S170], 15%.
In the case of `Nc1nc(NC2CCN(S(=O)(=O)CCNCc3c(F)cccc3F)CC2)sc1C(=O)c1c(F)cccc1F` [Example S126], the inhibition at 0.25 µM was found to be 68%.
The same measure, in the same setting: the same measure for `CC1CCCCN1CCS(=O)(=O)N1CCC(Nc2nc(N)c(C(=O)c3c(F)cccc3F)s2)CC1` (centres unmarked) [Example S15]: 46%; for `COC(CN(C)CCS(=O)(=O)N1CCC(Nc2nc(N)c(C(=O)c3c(F)cccc3F)s2)CC1)OC` [Example S30]: 18%.
The same measure, in the same setting: the same measure for `Nc1nc(NC2CCN(S(=O)(=O)CCN3CCCC(CO)C3)CC2)sc1C(=O)c1c(F)cccc1F` (centres unmarked) [Example S23]: 18%.
Take `C=C(C)CN(C)CCS(=O)(=O)N1CCC(Nc2nc(N)c(C(=O)c3c(F)cccc3F)s2)CC1` [Example S51]: the inhibition at 0.25 µM worked out at 83%.
For `CN(CCS(=O)(=O)N1CCC(Nc2nc(N)c(C(=O)c3c(F)cccc3F)s2)CC1)C1CCCCC1` [Example S9], the inhibition at 0.25 µM came out at 43%.
For the compound `Nc1nc(NC2CCN(S(=O)(=O)CCNCCO)CC2)sc1C(=O)c1c(F)cccc1F` [Example S115], the inhibition at 0.25 µM was found to be 68%.
On to `COc1cccc(CNCCS(=O)(=O)N2CCC(Nc3nc(N)c(C(=O)c4c(F)cccc4F)s3)CC2)c1` [Example S100], for which the inhibition at 0.25 µM came to 38%.
For the compound `Nc1nc(NC2CCN(S(=O)(=O)CCNCCc3ccccn3)CC2)sc1C(=O)c1c(F)cccc1F` [Example S85], the inhibition at 0.25 µM amounted to 19%.
As for `CN(CCO)CCS(=O)(=O)N1CCC(Nc2nc(N)c(C(=O)c3c(F)cccc3F)s2)CC1` [Example S4], the inhibition at 0.25 µM is 25%.
Still for that read-out and setting: with `Nc1nc(NC2CCN(S(=O)(=O)CCN3CCCCC3CO)CC2)sc1C(=O)c1c(F)cccc1F` (centres unmarked) [Example S13] the figure was 24%; with `CC(C)CN(C)CCS(=O)(=O)N1CCC(Nc2nc(N)c(C(=O)c3c(F)cccc3F)s2)CC1` [Example S38], 55%; with `NC(=O)[C@H]1CCCN1CCS(=O)(=O)N1CCC(Nc2nc(N)c(C(=O)c3c(F)cccc3F)s2)CC1` [Example S64], 12%.
Consider `Nc1nc(NC2CCN(S(=O)(=O)CCNCCN3CCOCC3)CC2)sc1C(=O)c1c(F)cccc1F` [Example S87], for which the inhibition at 0.25 µM was 13%.
As to `Nc1nc(NC2CCN(S(=O)(=O)CCN[C@H]3C=CCCC3)CC2)sc1C(=O)c1c(F)cccc1F` [Example S172], the inhibition at 0.25 µM stood at 20%.
The same measure, in the same setting: the same measure for `Nc1nc(NC2CCN(S(=O)(=O)CCNCC3CCCCC3)CC2)sc1C(=O)c1c(F)cccc1F` [Example S67]: 40%; for `CC(CCCC(C)(C)O)NCCS(=O)(=O)N1CCC(Nc2nc(N)c(C(=O)c3c(F)cccc3F)s2)CC1` (centres unmarked) [Example S162]: 22%; for `CN(CCS(=O)(=O)N1CCC(Nc2nc(N)c(C(=O)c3c(F)cccc3F)s2)CC1)Cc1cccnc1` [Example S34]: 21%.
As for `COc1ccc(CNCCS(=O)(=O)N2CCC(Nc3nc(N)c(C(=O)c4c(F)cccc4F)s3)CC2)cc1` [Example S104], the inhibition at 0.25 µM stood at 31%.
Turning to `N#CCCNCCS(=O)(=O)N1CCC(Nc2nc(N)c(C(=O)c3c(F)cccc3F)s2)CC1` [Example S132], the inhibition at 0.25 µM was found to be 20%.
Same read-out and setting: the same measure for `CN(C)[C@H]1CCN(CCS(=O)(=O)N2CCC(Nc3nc(N)c(C(=O)c4c(F)cccc4F)s3)CC2)C1` [Example S61]: 8%; for `CN(CCc1ccncc1)CCS(=O)(=O)N1CCC(Nc2nc(N)c(C(=O)c3c(F)cccc3F)s2)CC1` [Example S50]: 17%; for `Nc1nc(NC2CCN(S(=O)(=O)CCNCC(O)c3ccccc3)CC2)sc1C(=O)c1c(F)cccc1F` (centres unmarked) [Example S109]: 19%.
Consider `CC(NCCS(=O)(=O)N1CCC(Nc2nc(N)c(C(=O)c3c(F)cccc3F)s2)CC1)c1ccccc1` (centres unmarked) [Example S78], for which the inhibition at 0.25 µM stood at 49%.
For `Nc1nc(NC2CCN(S(=O)(=O)CCN3CCC(CO)CC3)CC2)sc1C(=O)c1c(F)cccc1F` [Example S63], the inhibition at 0.25 µM is 4%.

Values taken from patent US20050101595A1, “N-containing cycloalkyl-substituted amino-thiazole derivatives and pharmaceutical compositions for inhibiting cell proliferation and methods for their use” (PFIZER INC., priority 2003, published 2005).
